molecular target: human PDE4D catalytic domain (Homo sapiens (Human), UniProt Q08499); experiment: PDE4 Assay (TR-FRET, FAM-cAMP cleavage); assay type: biochemical; details: Table 16, Examples 277-296; read-out: PDE4 IC50 range
Description: The human PDE4D catalytic domain (UniProt no. Q08499 [S380-L740]) was incubated with a mixture of non-labelled cAMP (cyclic adenosine monophosphate) and fluorescein amidite (FAM) conjugated cAMP and titrated test or reference Compound. Following brief incubation the enzymatic reaction was stopped by addition of binding buffer containing nanoparticles with immobilized trivalent metal ions capable of binding 1) AMP phospho groups and 2) terbium (Tb) donor fluorophores. Subsequent excitation of the Tb donor triggers time-resolved FRET to adjacent FAM acceptor molecules resulting in light emission. In the presence of a PDE4 inhibitor, AMP generation was reduced resulting in a lower fluorescence signal. The cAMP phosphodiester is not bound by the detection system.
The results were calculated as the molar concentrations resulting in 50% inhibition of the substrate cleavage compared to controls samples, and are expressed as a range of IC50 (nM).

human PDE4D catalytic domain, sequence (Q08499 380-740): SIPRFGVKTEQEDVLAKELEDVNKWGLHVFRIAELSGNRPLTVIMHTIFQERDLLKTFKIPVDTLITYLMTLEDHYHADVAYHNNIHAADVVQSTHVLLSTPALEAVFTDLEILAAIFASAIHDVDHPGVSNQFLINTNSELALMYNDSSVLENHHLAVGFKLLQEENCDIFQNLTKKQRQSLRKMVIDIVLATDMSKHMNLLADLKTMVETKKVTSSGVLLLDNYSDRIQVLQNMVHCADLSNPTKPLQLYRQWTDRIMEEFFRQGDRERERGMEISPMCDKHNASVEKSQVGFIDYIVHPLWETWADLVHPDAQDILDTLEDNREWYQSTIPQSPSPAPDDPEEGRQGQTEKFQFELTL

Structure (SMILES)	IC50 [µM]
CCn1nc(C[C@@H](C)COC(=O)C2CCN(C(=O)OC)CC2)c2c1C(=O)NCC1(CCOCC1)C2 [Example 295, [(2R)-3-(1-ethyl-8-oxo-spiro[6,7-dihydro-4H-pyrazolo-[3,4-c]azepine-5,4′-tetrahydro-pyran]-3-yl)-2-methyl-propyl] 1-methoxycarbonylpiperidine-4-carboxylate]	< 0.1

same assay, conditions: Table 17, Examples 297-316; read-out: PDE4 IC50 range

Structure (SMILES)	IC50 [µM]
CCn1nc(CC(C)(C)COC(=O)c2cnc(C)nc2)c2c1C(=O)NCC1(CCOCC1)C2 [Example 308, [3-(1-ethyl-8-oxo-spiro[6,7-dihydro-4H-pyrazolo[3,4-c]azepine-5,4′-tetrahydropyran]-3-yl)-2,2-dimethyl-propyl] 2-methylpyrimidine-5-carboxylate]	< 0.1

same assay, conditions: human PDE4D catalytic domain (UniProt Q08499 [S380-L740]); 50% inhibition of substrate cleavage; read-out: PDE4 IC50 range

Structure (SMILES)	IC50 [µM]
CCn1nc(CCCOC(=O)c2c(F)cccc2Cl)c2c1C(=O)NCC1(CCOCC1)C2 [Example 52, 3-(1-ethyl-8-oxo-spiro[6,7-dihydro-4H-pyrazolo[3,4-c]azepine-5,4′-tetrahydropyran]-3-yl)propyl 2-chloro-6-fluoro-benzoate]	< 0.1
CCn1nc(CCCOC(=O)c2ccc(C(=O)NC)cc2)c2c1C(=O)NCC1(CCOCC1)C2 [Example 105, 3-(1-ethyl-8-oxo-spiro[6,7-dihydro-4H-pyrazolo[3,4-c]azepine-5,4′-tetrahydro-pyran]-3-yl)propyl 4-(methylcarbamoyl)benzoate]	< 0.1
CCn1nc(CCCOC(=O)c2ccc(C(=O)N3CCOCC3)cc2)c2c1C(=O)NCC1(CCOCC1)C2 [Example 109, 3-(1-ethyl-8-oxo-spiro[6,7-dihydro-4H-pyrazolo[3,4-c]azepine-5,4′-tetrahydropyran]-3-yl)propyl 4-(morpholine-4-carbonyl)benzoate]	< 0.1
CCn1nc(C[C@@H](C)COC(=O)c2cccc(S(=O)(=O)N3CCCC3)c2)c2c1C(=O)NCC1(CCOCC1)C2 [Example 163, [(2R)-3-(1-ethyl-8-oxo-spiro[6,7-dihydro-4H-pyrazolo[6,7-c]azepine-5,4′-tetrahydropyran]-3-yl)-2-methyl-propyl] 3-pyrrolidin-1-ylsulfonylbenzoate]	< 0.1
CCn1nc(CCCOC(=O)c2cccc(F)c2C)c2c1C(=O)NCC1(CCOCC1)C2 [Example 21, 3-(1-ethyl-8-oxo-spiro[6,7-dihydro-4H-pyrazolo[3,4-c]azepine-5,4′-tetrahydropyran]-3-yl)propyl 3-fluoro-2-methyl-benzoate]	< 0.1
CCn1nc(CCCOC(=O)c2ccc(OC)cc2C(F)(F)F)c2c1C(=O)NCC1(CCOCC1)C2 [Example 81, 3-(1-ethyl-8-oxo-spiro[6,7-dihydro-4H-pyrazolo[3,4-c]azepine-5,4′-tetrahydro-pyran]-3-yl)propyl 4-methoxy-2-(trifluoromethyl)benzoate]	< 0.1
CCn1nc(CCCOC(=O)c2ccc(F)cc2C)c2c1C(=O)NCC1(CCOCC1)C2 [Example 19, 3-(1-ethyl-8-oxo-spiro[6,7-dihydro-4H-pyrazolo[3,4-c]azepine-5,4′-tetrahydropyran]-3-yl)propyl 4-fluoro-2-methyl-benzoate]	< 0.1
CCn1nc(CCCOC(=O)c2ccc(F)cc2OC)c2c1C(=O)NCC1(CCOCC1)C2 [Example 40, 3-(1-ethyl-8-oxo-spiro[6,7-dihydro-4H-pyrazolo[3,4-c]azepine-5,4′-tetrahydropyran]-3-yl)propyl 4-fluoro-2-methoxy-benzoate]	< 0.1
CCn1nc(CCCOC(=O)c2ccc(F)c(OC)c2)c2c1C(=O)NCC1(CCOCC1)C2 [Example 36, 3-(1-ethyl-8-oxo-spiro[6,7-dihydro-4H-pyrazolo[3,4-c]azepine-5,4′-tetrahydropyran]-3-yl)propyl 4-fluoro-3-methoxy-benzoate]	< 0.1
CCn1nc(CCCOC(=O)c2cocn2)c2c1C(=O)NCC1(CCOCC1)C2 [Example 235, 3-(1-ethyl-8-oxo-spiro[6,7-dihydro-4H-pyrazolo[3,4-c]azepine-5,4′-tetrahydro-pyran]-3-yl)propyl oxazole-4-carboxylate]	< 0.1
